Measured values published in US7803829B2, “Use of a kinase inhibitor for the treatment of particular resistant tumors” (Nerviano Medical Sciences S.r.l., priority 2006, dated 2010).
Where a chain is given by its changes, count along the chain named. Entries after “also recorded” stand apart in the source; their conditions may differ. Values belong to the molecule of their own block, whether it stands above or below them.

Experiments:
[1] = biological target: T1, T315I ABL mutant kinase domain (Homo sapiens, UniProt P00519, T315I); test: ATP site-dependent displacement assay, indolinone probe of 3.2; type: binding
T1 construct: ABL kinase domain (corresponding to residues 229-512); GST (N, cleaved yes); PreScission cleavage site (N, cleaved yes); made in house; host or cells: High5 insect cells (baculovirus)
T1 sequence (P00519 229-512 T315I): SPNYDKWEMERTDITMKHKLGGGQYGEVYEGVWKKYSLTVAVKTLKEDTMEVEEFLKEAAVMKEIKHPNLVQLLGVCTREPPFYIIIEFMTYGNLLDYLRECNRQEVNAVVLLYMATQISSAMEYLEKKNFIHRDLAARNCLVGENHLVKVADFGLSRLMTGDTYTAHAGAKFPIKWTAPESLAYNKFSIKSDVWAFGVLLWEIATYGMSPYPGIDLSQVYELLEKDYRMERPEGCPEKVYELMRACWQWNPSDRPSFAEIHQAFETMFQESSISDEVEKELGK
Description: (§1) KD values, are the average of three independent experiments.

[2] = biological target: T1, T315I ABL mutant kinase domain; test: ATP site-dependent displacement assay, indolinone probe of 3.1; type: binding
Description: as §1

[3] = biological target: T2, wild-type ABL kinase domain (Homo sapiens, UniProt P00519); test: ATP site-dependent displacement assay, indolinone probe of 3.2; type: binding
T2 construct: ABL kinase domain (corresponding to residues 229-512); GST (N, cleaved yes); PreScission cleavage site (N, cleaved yes); made in house; host or cells: High5 insect cells (baculovirus)
T2 sequence (P00519 229-512): T1 sequence (P00519 229-512 T315I) with I87T
Description: as §1

[4] = biological target: T3, Wild-type ABL 0P (unphosphorylated) kinase domain (Homo sapiens, UniProt P00519); test: as above; type: binding
T3 construct: ABL kinase domain (corresponding to residues 229-512); GST (N, cleaved yes); PreScission cleavage site (N, cleaved yes); made in house; host or cells: High5 insect cells (baculovirus)
T3 sequence (P00519 229-512): T1 sequence (P00519 229-512 T315I) with I87T
Description: as §1

[5] = biological target: T2, wild-type ABL kinase domain; test: ATP site-dependent displacement assay, indolinone probe of 3.1; type: binding
Description: as §1

[6] = biological target: T3, Wild-type ABL 0P (unphosphorylated) kinase domain; test: as above; type: binding
Description: as §1

[7] = biological target: T1, T315I ABL mutant kinase domain; test: Indolinone probe titration (fluorescence), probe of 3.1; type: binding; details: Table 1; 10 nM enzyme, probe 3 μM to 0
Experimental: (§2) Data analysis was performed using the Dynafit software.

[8] = biological target: T2, wild-type ABL kinase domain; test: as above; type: binding; details: Table 1; 10 nM enzyme, probe 3 μM to 0
Experimental: as §2

[9] = biological target: T3, Wild-type ABL 0P (unphosphorylated) kinase domain; test: as above; type: binding; details: Table 1; 10 nM enzyme, probe 3 μM to 0
Experimental: as §2

[10] = biological target: T1, T315I ABL mutant kinase domain; test: Indolinone probe titration (fluorescence), probe of 3.2; type: binding; details: Table 4
Experimental: (§3) The titration experiment was performed as follows: 10 nM ABL kinase domains (wild-type or T315I mutant), indolinone concentration from 3 μM to 0, with dilution steps 1:1.5 in 50 mM TrisHCl, pH 7.5, 150 mM NaCl, 5 mM MgCl2, 1 mM MnCl2, 1 mM DTT, 1% DMSO, 3 μM NaaVO4(buffer 1).

[11] = biological target: T2, wild-type ABL kinase domain; test: as above; type: binding; details: Table 4
Experimental: as §3

[12] = biological target: T3, Wild-type ABL 0P (unphosphorylated) kinase domain; test: as above; type: binding; details: Table 4
Experimental: as §3

[13] = biological target: T4, T315I ABL mutant in HCT-116 transfected cells (Homo sapiens, UniProt P00519, T315I); test: Immunoblotting of transfected HCT-116 cells (pY412-ABL); type: cell-based; details: 5 μM, HCT-116 transfected with T315I mutant construct, FIG. 3
T4 construct: ABL cDNA (corresponding to residues 27-1130); expressed in transfected cells; host or cells: HCT-116
Experimental: (§4) Amplification was performed using the forward oligonucleotide:
Oligonucleotide used in the mutagenesis reaction was:
(§5) Immunoblotting was performed according to standard methods.

[14] = biological target: T5, BCR-ABL in K-562 leukemia cells (Homo sapiens, UniProt P00519); test: Immunoblotting of K-562 leukemia cells, inhibition of BCR-ABL signaling; type: cell-based; details: K-562 cells treated for one hour
T5 construct: endogenously expressing BCR-ABL cells; endogenous in cells; host or cells: K-562; the other entry of the earlier key: BCR (P11274, Breakpoint cluster region protein)

[15] = biological target: T6, wild-type ABL in HCT-116 transfected cells (Homo sapiens, UniProt P00519); test: Immunoblotting of transfected HCT-116 cells (pY412-ABL); type: cell-based; details: 5 μM, HCT-116 transfected with wild-type construct, FIG. 3
T6 construct: ABL cDNA (corresponding to residues 27-1130); expressed in transfected cells; host or cells: HCT-116
Experimental: as §4, §5

[16] = Tables 5 and 6, probe 3.2, 3 μM highest inhibitor concentration, average of three experiments
[17] = Tables 2 and 3, probe 3.1, 3 μM highest inhibitor concentration
[18] = Table 5, probe 3.2, 3 μM highest inhibitor concentration, average of three experiments
[19] = Table 2, probe 3.1, 3 μM highest inhibitor concentration

Structure (SMILES): CC(C)(NC(=O)c1cc2c(NC(=O)c3ccc(CN4CCCCC4)cc3)n[nH]c2s1)c1ccccc1F [Compound 2, 3-(4-Piperidin-1-ylmethyl-benzoylamino)-1H-thieno[2,3-c]pyrazole-5-carboxylic acid [1-(2-fluoro-phenyl)-1-methyl-ethyl]-amide]
Kd [1, 16]: 15 ± 4 nM | Kd [3, 18]: 177 ± 32 nM | Kd [4, 18]: 107 ± 21 nM | Kd [2, 17]: 15 ± 4 nM | Kd [5, 19]: 177 ± 32 nM | Kd [6, 19]: 107 ± 21 nM

Structure (SMILES): CC(C)NCc1ccc(C(=O)Nc2n[nH]c3sc(C(=O)NC(C)(C)c4ccccc4F)cc23)cc1 [Compound 7]
Kd [1, 16]: 16.8 ± 3 nM | Kd [2, 17]: 20 ± 2 nM

Structure (SMILES): CC(C)(NC(=O)c1cc2c(NC(=O)c3ccc(CN4CCOCC4)cc3)n[nH]c2s1)c1ccccc1F [Compound 3, 3-(4-Morpholin-4-ylmethyl-benzoylamino)-1H-thieno[2,3-c]pyrazole-5-carboxylic acid [1-(2-fluoro-phenyl)-1-methyl-ethyl]-amide]
Kd [1, 16]: 70 ± 22 nM | Kd [3, 18]: 553 ± 136 nM | Kd [4, 18]: 350 ± 50 nM | Kd [2, 17]: 47 ± 15 nM | Kd [5, 19]: 370 ± 160 nM | Kd [6, 19]: 330 ± 150 nM

Structure (SMILES): CCN(CC)CCNC(=O)c1c(C)[nH]c(/C=C2\C(=O)Nc3ccc(S(=O)(=O)Cc4ccccc4)cc32)c1C [2,4-dimethyl-5-[2-oxo-5-phenylmethanesulfonyl-1,2-dihydro-indol-(3Z)-ylidenemethyl]-1H-pyrrole-3-carboxylic acid (2-diethylamino-ethyl)-amide]
Kd [7]: 140 ± 70 nM | Kd [8]: 40 ± 20 nM | Kd [9]: 50 ± 30 nM

Structure (SMILES): CC(C)(NC(=O)c1cc2c(NC(=O)c3ccc(CN4CCCCC4)cc3)n[nH]c2s1)c1ccc(F)cc1 [Compound 6, 3-(4-Piperidin-1-ylmethyl-benzoylamino)-1H-thieno[2,3-c]pyrazole-5-carboxylic acid [1-(4-fluoro-phenyl)-1-methyl-ethyl]-amide]
Kd [1, 16]: 17.4 ± 6 nM | Kd [2, 17]: 14 ± 5 nM

Structure (SMILES): CCN(CC)CCNC(=O)c1c(C)[nH]c(/C=C2\C(=O)Nc3ccc(S(=O)(=O)NC)cc32)c1-c1ccc(F)cc1F [N-[2-(diethylamino)ethyl]-4-(2,4-difluorophenyl)-2-methyl-5-((Z)-{5-[(methylamino)sulfonyl]-2-oxo-1,2-dihydro-3H-indol-3-ylidene}methyl)-1H-pyrrole-3-carboxamide]
Kd [10]: 20 ± 8 nM | Kd [11]: 330 ± 120 nM | Kd [12]: 200 ± 100 nM

Structure (SMILES): CC(C)(NC(=O)c1cc2c(NC(=O)c3ccc(CN4CCCCC4)cc3)n[nH]c2s1)c1ccccc1Cl [Compound 9, 3-(4-Piperidin-1-ylmethyl-benzoylamino)-1H-thieno[2,3-c]pyrazole-5-carboxylic acid [1-(2-chloro-phenyl)-1-methyl-ethyl]-amide]
Kd [1, 16]: 18 ± 3.4 nM | Kd [2, 17]: 14 ± 3.5 nM

Structure (SMILES): Nc1ncnc2c1ncn2[C@@H]1O[C@H](COP(=O)(O)OP(=O)(O)OP(O)(O)=S)[C@@H](O)[C@H]1O [ATPγS, reference compound]
Kd ([1]; Table 4 validation, probe 3.2 at 0.2 μM): 2610 ± 900 nM | Kd ([3]; Table 4 validation, probe 3.2 at 3.3 μM): 4800 ± 1000 nM | Kd ([4]; Table 4 validation, probe 3.2 at 2 μM): 6600 ± 1600 nM | Kd ([2]; Table 1 validation, probe 3.1 at 0.42 μM, highest conc. ATPγS 250 μM, Imatinib 10 μM, average of three experiments): 2000 ± 210 nM | Kd ([5]; Table 1 validation, probe 3.1 at 0.12 μM, highest conc. ATPγS 250 μM, Imatinib 10 μM, average of three experiments): 9000 ± 1900 nM | Kd ([6]; Table 1 validation, probe 3.1 at 0.15 μM, highest conc. ATPγS 250 μM, Imatinib 10 μM, average of three experiments): 9500 ± 3400 nM

Structure (SMILES): CC(C)(NC(=O)c1cc2c(NC(=O)c3ccc(CN4CCCCC4)cc3)n[nH]c2s1)c1ccccc1 [Compound 1, 3-(4-Piperidin-1-ylmethyl-benzoylamino)-1H-thieno[2,3-c]pyrazole-5-carboxylic acid (1-methyl-1-phenyl-ethyl)-amide]
Kd [1, 16]: 37 ± 13 nM | Kd [3, 18]: 310 ± 26 nM | Kd [4, 18]: 278 ± 122 nM | inhibitory activity on ABL (pY412-ABL immunoblot) [13]: capable of inhibiting; also recorded: strong inhibitory activity | effect on Src [14]: no effect on Src | inhibition of ABL auto-phosphorylation of Y412 ([14]; FIG. 2): inhibit phosphorylation of Y412 | inhibition of phosphorylation of downstream mediators Stat-5 and Crkl ([14]; FIG. 2): inhibit | Kd [2, 17]: 21 ± 6 nM | Kd [5, 19]: 250 ± 75 nM | Kd [6, 19]: 240 ± 30 nM | inhibitory activity on ABL (pY412-ABL immunoblot) [15]: capable of inhibiting; also recorded: strong inhibitory activity

Further molecules by falling Kd [1, 16], results first:

Kd [1, 16]: 11.7 ± 3.8 nM | Kd [2, 17]: 16 ± 3.7 nM
Structure (SMILES): CC(C)(NC(=O)c1cc2c(NC(=O)c3ccc(N4CCOCC4)cc3)n[nH]c2s1)c1ccccc1 [Compound 12, 3-(4-Morpholin-4-yl-benzoylamino)-1H-thieno[2,3-c]pyrazole-5-carboxylic acid (1-methyl-1-phenyl-ethyl)-amide]

Kd [1, 16]: 11 ± 2.6 nM | Kd [2, 17]: 12 ± 2.5 nM
Structure (SMILES): CC(C)NCc1ccc(C(=O)Nc2n[nH]c3sc(C(=O)NC(C)(C)c4ccccc4)cc23)cc1 [Compound 11, 3-[4-(Isopropylamino-methyl)benzoylamino)-1H-thieno[2,3-c]pyrazole-5-carboxylic acid (1-methyl-1-phenyl-ethyl)-amide]

Kd [1, 16]: 9.3 ± 2.5 nM | Kd [2, 17]: 8.4 ± 4 nM
Structure (SMILES): CN1CCN(Cc2ccc(C(=O)Nc3n[nH]c4sc(C(=O)NC(C)(C)c5ccccc5)cc34)cc2)CC1 [Compound 10, 3-[4-(4-Methyl-piperazin-1-ylmethyl)-benzoylamino]-1H-thieno[2,3-c]pyrazole-5-carboxylic acid (1-methyl-1-phenyl-ethyl)-amide]

Kd [1, 16]: 8.3 ± 1.5 nM | Kd [2, 17]: 12 ± 6 nM
Structure (SMILES): CN1CCN(c2ccc(C(=O)Nc3n[nH]c4sc(C(=O)NC(C)(C)c5ccccc5F)cc34)cc2)CC1 [Compound 8, 3-[4-(4-Methyl-piperazin-1-yl)-benzoylamino)-1H-thieno[2,3-c]pyrazole-5-carboxylic acid [1-(2-fluoro-phenyl)-1-methyl-ethyl]-amide]

Kd [1, 16]: 6.3 ± 3.3 nM | Kd [2, 17]: 10 ± 4.6 nM
Structure (SMILES): CC(C)(NC(=O)c1cc2c(NC(=O)c3ccc(CN4CCCCC4)cc3)n[nH]c2s1)c1cccc(F)c1 [Compound 13, 3-(4-Piperidin-1-ylmethyl-benzoylamino)-1H-thieno[2,3-c]pyrazole-5-carboxylic acid [1-(3-fluoro-phenyl)-1-methyl-ethyl]-amide]

Kd [1, 16]: 5.3 ± 4 nM | Kd [2, 17]: 4.1 ± 2 nM
Structure (SMILES): CN1CCN(c2ccc(C(=O)Nc3n[nH]c4sc(C(=O)NC(C)(C)c5ccccc5)cc34)cc2)CC1 [Compound 5, 3-[4-(4-Methyl-piperazin-1-yl)-benzoylamino]-1H-thieno[2,3-c]pyrazole-5-carboxylic acid (1-methyl-1-phenyl-ethyl)-amide]

Kd [1, 16]: 2.7 ± 1 nM | Kd [2, 17]: 6 ± 3 nM
Structure (SMILES): CN1CCC(Oc2ccc(C(=O)Nc3n[nH]c4sc(C(=O)NC(C)(C)c5ccccc5)cc34)cc2)CC1 [Compound 4, 3-[4-(1-Methyl-piperidin-4-yloxy)-benzoylamino]-1H-thieno[2,3-c]pyrazole-5-carboxylic acid (1-methyl-1-phenyl-ethyl)-amide]
